US20120208809A1, “9H-PYRROLO[2,3-B: 5,4-C'] DIPYRIDINE AZACARBOLINE DERIVATIVES, PREPARATION THEREOF, AND THERAPEUTIC USE THEREOF” (SANOFI, priority 2009, published 2012)

Experiments:
Pim-3 = target: T1, Pim-3 (Homo sapiens, UniProt Q86V86); experiment: TR-FRET assay of Pim kinase activity (phosphorylation of Bad Ser112), Pim-3; assay type: biochemical; conditions: ATP 40 μM, read-out: IC50 Pim3
T1 construct: full-length human recombinant His6-labelled Pim-1, Pim-2 or Pim-3 protein; His6; made in house
Experimental: (§1) In order to determine the inhibition of Pim kinase activity, the compounds of the invention are tested in accordance with a routinely-used in-vitro TR-FRET assay (“Time Resolved-Fluorescence Resonance Energy Transfer”). […] For the assay, the following reagents are used:
(§2) Pim kinase—full-length human recombinant His6-labelled Pim-1, Pim-2 or Pim-3 protein (prepared according to J. Mol. Biol. (2005) 348, 183-193); Bad—full-length human recombinant His6-labelled Bad protein (prepared according to J. Mol. Biol. (2005) 348, 183-193); α-His6-APC—mouse monoclonal antibody conjugated to allophycocyanine SureLight™ directed against the His6 label (Perkin-Elmer, No. AD0059H, Waltham, Mass., United States); α-P˜Bad-Eu—mouse monoclonal antibody (Cell Signaling Technology #9296B, Danvers, Mass., United States) directed against phosphoBad (Ser112) (7E11) labelled on request by Perkin-Elmer with the reagent LANCE™ Eu-W1024.
(§3) The assay is based on the LANCE™ technology from Perkin-Elmer: the Eu-labelled antibody binds to phospho-Ser112 and generates a TR-FRET signal by interaction with the […] antibody directed against His6, bound to the His6 label of Bad. The TR-FRET signal is detected using a SpectraMax M5 plate reader (Molecular Devices) with the following settings: λex=340 nm, λem1=615 nm, λem2=665 nm. The ratio of the fluorescence signal at 665 nm to the fluorescence signal at 615 nm is used as the signal reading for the IC50 (calculations based on the 4-parameter logistic model). The assay is performed in 384-well format; the liquid manipulations are performed using a Beckmann 3000 liquid manipulation station. The test compounds are tested at 10 concentration points in duplicate; the highest concentration of compound is typically equal to 30 μM. The ATP concentration is equal to 40 μM.

MV4-11 = experiment: Cell viability assay (CellTiter-Blue), MV4-11; assay type: cell-based; conditions: Homo sapiens, read-out: EC50 MV4-11 μM (acute myeloid leukemia), MV4-11 cells, read-out: EC50 MV4-11 μM (myeloma)
Experimental: (§4) The representative compounds of the invention are also screened as regards their effects on cell proliferation and viability, using a variety of tumoral cell lines of human source, representative of different pathological indications. These cell lines include:
(§5) In order to measure the viability, the tumour cells are incubated in 96-well or 384-well format for 48, 72 or 96 hours, preferably 72 hours, with a compound of the invention at dilutions of a factor 3, with, in general, nine doses in total, the highest dose being equal to 10 μM or 30 μM. The cell viability is evaluated by adding CellTiter-Blue® (Promega, Madison, Wis., United States) for 4 hours and endpoint readings are taken using a SpectraMax Genmini EM plate reader (Molecular Devices, Sunnyvale, Calif., United States). The CellTiter-Blue® cell viability assay measures the ability of the cells in culture to reduce resazurin to resorufin, the intensity of the fluorescence signal being directly proportional to the number of live cells. The EC50 represents the concentration of compound that leads to a 50% reduction of the viability/proliferative expansion of the cells.

CDK1 = CDK1 (Homo sapiens, UniProt P06493); experiment: Biochemical results, IC50 CDK1
CDK1, sequence (P06493 whole entry, species assumed): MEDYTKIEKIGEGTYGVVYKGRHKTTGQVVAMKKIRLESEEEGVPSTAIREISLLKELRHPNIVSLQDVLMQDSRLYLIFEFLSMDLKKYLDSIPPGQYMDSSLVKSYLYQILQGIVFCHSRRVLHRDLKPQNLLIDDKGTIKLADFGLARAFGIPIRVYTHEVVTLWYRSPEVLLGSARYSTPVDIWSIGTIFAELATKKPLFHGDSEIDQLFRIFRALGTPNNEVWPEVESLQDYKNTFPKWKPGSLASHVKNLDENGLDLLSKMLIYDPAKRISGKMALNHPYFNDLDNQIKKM
CDK1, sequence (P14635 whole entry partner, species assumed): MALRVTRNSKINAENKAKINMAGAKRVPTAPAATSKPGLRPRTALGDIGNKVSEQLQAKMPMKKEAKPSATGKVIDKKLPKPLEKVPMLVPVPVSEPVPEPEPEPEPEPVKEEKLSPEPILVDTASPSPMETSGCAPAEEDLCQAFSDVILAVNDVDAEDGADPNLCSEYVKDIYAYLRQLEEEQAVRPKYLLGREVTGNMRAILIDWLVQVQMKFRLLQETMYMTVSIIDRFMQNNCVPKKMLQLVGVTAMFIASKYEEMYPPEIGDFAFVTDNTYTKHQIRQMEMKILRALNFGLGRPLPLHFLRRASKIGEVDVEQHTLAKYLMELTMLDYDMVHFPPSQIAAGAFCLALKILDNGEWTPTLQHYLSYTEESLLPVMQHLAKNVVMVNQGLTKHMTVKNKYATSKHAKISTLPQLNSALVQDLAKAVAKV

Pim-1 = target: T2, Pim-1 (Homo sapiens, UniProt P11309); experiment: TR-FRET assay of Pim kinase activity (phosphorylation of Bad Ser112), Pim-1; assay type: biochemical; conditions: ATP 40 μM, read-out: IC50 Pim1
T2 construct: full-length human recombinant His6-labelled Pim-1, Pim-2 or Pim-3 protein; His6; made in house
T2 sequence (P11309 whole entry): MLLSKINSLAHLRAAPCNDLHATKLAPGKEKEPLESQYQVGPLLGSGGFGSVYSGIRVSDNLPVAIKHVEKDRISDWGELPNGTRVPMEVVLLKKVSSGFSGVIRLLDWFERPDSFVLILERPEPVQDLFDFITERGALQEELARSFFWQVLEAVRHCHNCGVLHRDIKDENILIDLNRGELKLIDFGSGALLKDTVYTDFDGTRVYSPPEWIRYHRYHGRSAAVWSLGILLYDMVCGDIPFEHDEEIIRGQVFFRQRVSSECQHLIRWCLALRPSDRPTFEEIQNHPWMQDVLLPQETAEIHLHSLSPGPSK
Experimental: as §1, §2, §3

EOL-1 = experiment: Cell viability assay (CellTiter-Blue), EOL-1; assay type: cell-based; conditions: Homo sapiens, EOL1, read-out: EC50 EOL-1 μM (eosinophilic leukaemia), EOL-1 cells, read-out: EC50 EOL-1 μM (lymphoma);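 note: EOL-1 is an acute myeloid eosinophilic leukaemia line not a lymphoma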
Text: as §4
Models of Haematological Cancers: • TF-1 (acute myelogenic leukaemia; AML M6 at the time of diagnosis); • K G-1 (AML; erythroleukaemia evolving into AML); • KG-1a (AML; subclone derived from immature KG-1); • EOL-1 (AML: eosinophilic leukaemia); • PL-21 (AML; M3); • ML-2 (AML; T-NHL evolving into T-ALL evolving into AML M4); • HL-60 (AML, M3); • Kasumi-1 (AML); • GDM-1 (AML); • K-562 (CML—chronic myelogenic leukaemia; blastic crisis); • JURL-MK1 (CML; blastic crisis); • DND-41 (T-ALL—T-cell acute lymphoblastic leukaemia); • Jurkat (T-ALL); NALM-6 (B-ALL B-cell ALL); • CEM (ALL; lymphosarcoma evolving into ALL); • Jeko-1 (B-NHL—B-cell non-Hodgkin lymphoma; lymphoma with coat cells derived from a large-cell variant in leukaemic transformation); • WSU-DLCL2 (B-NHL; diffuse lymphoma with large B cells); • RL (B-NHL; undifferentiated diffuse); • OCl-Ly10 (B-NHL); • DoHH-2 (B-NHL); • RPMI-8226 (MM—multiple myelomas); • JVM-2 (B-CLL—B-cell chronic lymphocytic leukaemia); and • JVM-3 (B-CLL).
as §5

PLK1 = PLK1 (Homo sapiens, UniProt P53350); experiment: Biochemical results, IC50 PLK1
PLK1, sequence (P53350 whole entry, species assumed): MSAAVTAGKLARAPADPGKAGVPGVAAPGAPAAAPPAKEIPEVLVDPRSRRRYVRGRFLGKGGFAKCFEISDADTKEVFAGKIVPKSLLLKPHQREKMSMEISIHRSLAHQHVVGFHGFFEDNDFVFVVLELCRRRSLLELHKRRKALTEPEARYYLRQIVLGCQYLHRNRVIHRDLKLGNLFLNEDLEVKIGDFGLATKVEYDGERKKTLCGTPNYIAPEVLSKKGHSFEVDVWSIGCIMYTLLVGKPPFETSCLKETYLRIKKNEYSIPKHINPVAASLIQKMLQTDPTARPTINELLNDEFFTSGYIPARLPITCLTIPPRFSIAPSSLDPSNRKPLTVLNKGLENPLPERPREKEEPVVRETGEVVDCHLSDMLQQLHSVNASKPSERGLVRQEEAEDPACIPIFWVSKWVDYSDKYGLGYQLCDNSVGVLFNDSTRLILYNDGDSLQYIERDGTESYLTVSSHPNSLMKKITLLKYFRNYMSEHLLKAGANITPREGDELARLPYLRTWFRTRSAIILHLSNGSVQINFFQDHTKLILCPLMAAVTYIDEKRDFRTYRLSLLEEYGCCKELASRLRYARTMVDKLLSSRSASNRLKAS

Pim-2 = target: T3, Pim-2 (Homo sapiens, UniProt Q9P1W9); experiment: TR-FRET assay of Pim kinase activity (phosphorylation of Bad Ser112), Pim-2; assay type: biochemical; conditions: ATP 40 μM, read-out: IC50 Pim2
T3 construct: full-length human recombinant His6-labelled Pim-1, Pim-2 or Pim-3 protein; His6; made in house
T3 sequence (Q9P1W9 whole entry): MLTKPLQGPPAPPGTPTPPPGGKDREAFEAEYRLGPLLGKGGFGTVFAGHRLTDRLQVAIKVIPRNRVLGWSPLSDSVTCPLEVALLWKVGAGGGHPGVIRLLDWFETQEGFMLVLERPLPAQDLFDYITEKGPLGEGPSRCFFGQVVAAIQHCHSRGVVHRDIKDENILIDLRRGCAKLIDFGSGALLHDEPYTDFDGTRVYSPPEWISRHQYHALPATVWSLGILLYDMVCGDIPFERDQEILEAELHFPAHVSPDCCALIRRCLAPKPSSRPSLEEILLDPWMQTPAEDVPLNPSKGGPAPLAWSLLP
Experimental: as §1, §2, §3

`CN1CC(NC(=O)c2ccc(-c3c(F)cnc4[nH]c5cnc(-c6cccnc6)cc5c34)cc2)C1` [Example 56, 4-[3-fluoro-6-(pyridin-3-yl)-9H-pyrrolo[2,3-b:5,4-c′]dipyridin-4-yl]-N-(1-methylazetidin-3-yl)benzamide] showed an IC50 (Pim-3) of under 100 nM, an EC50 (MV4-11) of under 100 nM and an IC50 (CDK1) of 100 to 1000 nM. It also gave an IC50 (Pim-1) of under 100 nM, an EC50 (EOL-1) of under 100 nM and an IC50 (PLK1) of 100 to 1000 nM. For the same compound, the IC50 (Pim-2) was under 100 nM.
Compound `CCNCCNC(=O)c1ccc(-c2c(F)cnc3[nH]c4cnc(-c5cccnc5)cc4c23)cc1` [Example 87, N-[2-(ethylamino)ethyl]-4-[3-fluoro-6-(pyridin-3-yl)-9H-pyrrolo[2,3-b:5,4-c′]dipyridin-4-yl]benzamide] has an IC50 (Pim-3) of under 100 nM, an EC50 (MV4-11) of 100 to 1000 nM and an IC50 (CDK1) of 100 to 1000 nM. It also gave an IC50 (Pim-1) of under 100 nM, an EC50 (EOL-1) of 100 to 1000 nM and an IC50 (PLK1) of 100 to 1000 nM. It also gave an IC50 (Pim-2) of under 100 nM.
Compound `CNCCNC(=O)c1ccc(-c2c(F)cnc3[nH]c4cnc(-c5cccnc5)cc4c23)cc1` [Example 88, 4-[3-fluoro-6-(pyridin-3-yl)-9H-pyrrolo[2,3-b:5,4-c′]dipyridin-4-yl]-N-[2-(methylamino)ethyl]benzamide] has an IC50 (Pim-3) of under 100 nM, an IC50 (CDK1) of 100 to 1000 nM and an IC50 (Pim-1) of under 100 nM. For the same compound, the IC50 (PLK1) was 100 to 1000 nM and the IC50 (Pim-2) was under 100 nM.
`NC1(CNC(=O)c2ccc(-c3c(F)cnc4[nH]c5cnc(-c6cccnc6)cc5c34)cc2)CC1` [Example 89, N-[(1-aminocyclopropyl)methyl]-4-[3-fluoro-6-(pyridin-3-yl)-9H-pyrrolo[2,3-b:5,4-c′]dipyridin-4-yl]benzamide] showed an IC50 (Pim-3) of under 100 nM, an EC50 (MV4-11) of 100 to 1000 nM and an IC50 (CDK1) of 100 to 1000 nM. The IC50 (Pim-1) was under 100 nM, the EC50 (EOL-1) was 100 to 1000 nM and the IC50 (PLK1) was 100 to 1000 nM. It also gave an IC50 (Pim-2) of under 100 nM.
`NCC(F)(F)CNC(=O)c1ccc(-c2c(F)cnc3[nH]c4cnc(-c5cccnc5)cc4c23)cc1` [Example 90, N-(3-amino-2,2-difluoropropyl)-4-[3-fluoro-6-(pyridin-3-yl)-9H-pyrrolo[2,3-b:5,4-c′]dipyridin-4-yl]benzamide] gave an IC50 (Pim-3) of under 100 nM, an EC50 (MV4-11) of 100 to 1000 nM and an IC50 (CDK1) of 100 to 1000 nM. The IC50 (Pim-1) was under 100 nM, the EC50 (EOL-1) was 100 to 1000 nM and the IC50 (PLK1) was 100 to 1000 nM. The IC50 (Pim-2) was 100 to 1000 nM.
In the case of `CC(N)(CNC(=O)c1ccc(-c2c(F)cnc3[nH]c4cnc(-c5cccnc5)cc4c23)cc1)C(F)(F)F` (stereo not shown) [Example 91, N-(2-amino-3,3,3-trifluoro-2-methylpropyl)-4-[3-fluoro-6-(pyridin-3-yl)-9H-pyrrolo[2,3-b:5,4-c′]dipyridin-4-yl]benzamide], the IC50 (Pim-3) is reported as 100 to 1000 nM, the IC50 (CDK1) is reported as 100 to 1000 nM and the IC50 (Pim-1) is reported as 100 to 1000 nM. For the same compound, the IC50 (PLK1) was 100 to 1000 nM and the IC50 (Pim-2) was 1000 to 5000 nM.
For `CN1CCN(NC(=O)c2ccc(-c3c(F)cnc4[nH]c5cnc(-c6cnn(C)c6)cc5c34)cc2)CC1` [Example 99, 4-[3-fluoro-6-(1-methyl-1H-pyrazol-4-yl)-9H-pyrrolo[2,3-b:5,4-c′]dipyridin-4-yl]-N-(4-methylpiperazin-1-yl)benzamide], the IC50 (Pim-3) was under 100 nM, the IC50 (CDK1) was 1000 to 5000 nM and the IC50 (Pim-1) was under 100 nM. The IC50 (PLK1) was over 5000 nM and the IC50 (Pim-2) was 100 to 1000 nM.
`Cn1cc(-c2cc3c(cn2)[nH]c2ncc(F)c(-c4ccc(C(N)=O)cc4)c23)cn1` [Example 104, 4-[3-fluoro-6-(1-methyl-1H-pyrazol-4-yl)-9H-pyrrolo[2,3-b:5,4-c′]dipyridin-4-yl]benzamide] showed an IC50 (Pim-3) of under 100 nM, an IC50 (CDK1) of 100 to 1000 nM and an IC50 (Pim-1) of under 100 nM. It also gave an IC50 (PLK1) of 100 to 1000 nM and an IC50 (Pim-2) of 100 to 1000 nM.
For `CN1CCN(NC(=O)c2ccc(-c3c(F)cnc4[nH]c5cnc(-c6cnn(C)c6Cl)cc5c34)cc2)CC1` [Example 106, 4-[6-(5-chloro-1-methyl-1H-pyrazol-4-yl)-3-fluoro-9H-pyrrolo[2,3-b:5,4-c′]dipyridin-4-yl]-N-(4-methylpiperazin-1-yl)benzamide], the IC50 (Pim-3) was under 100 nM, the EC50 (MV4-11) was 100 to 1000 nM and the IC50 (CDK1) was 100 to 1000 nM. It also gave an IC50 (Pim-1) of under 100 nM, an EC50 (EOL-1) of under 100 nM and an IC50 (PLK1) of 1000 to 5000 nM. For the same compound, the IC50 (Pim-2) was under 100 nM.
